The source of these data is publication PMC7866972, “Crosstalk of Cancer Signaling Pathways by Cyclic Hexapeptides and Anthraquinones from Rubia cordifolia” (Molecules, 2021).

Holding throughout (type): cell-based
In one test the test system is pTK control vector. Put plainly: pTK control vector luciferase assay (minimal thymidine kinase promoter). The settings on record: Homo sapiens, HeLa cells, 30 µM, no inducer, read-out: percentage of luciferase induction pTK/No Induction. Here is the method: (§1) Hela cells from ATCC were plated in white opaque 384 well plates at a density of 4300 cells/well in 30 µL of a growth medium (DMEM with 10% FBS and 1% Pen/step). The next day, the medium was aspirated and replaced with DMEM containing 10% FBS. The cells were transfected with respective plasmids using the X-tremeGENE HP transfection reagent (Roche). Luciferase vectors used in this assay are summarized in Table S2, Supporting Information. After 24 h of transfection, the test agents were added to the transfected cells, followed 30 min later by an inducing agent (IL-6 for Stat 3, TGF-beta for Smad, m-wnt3a for Wnt and PMA for AP-1, NF-kB, E2F, Myc, ETS, Notch and Hedgehog). No inducer was added for FoXO, miR-21, and […]. After 4 h or 6 h of induction, the cells were lysed by the addition of the One-Glo luciferase assay system (Promega, Madison, WI, USA). The light output was detected in a Glomax Multi+ detection system with the Instinct Software (Promega, Madison, WI, USA). This luciferase assay determines if the test agent was able to inhibit the activation of cancer-related signaling pathways. In the case of FoxO and mi-R21, the enhanced luciferase activity by the test agent was assessed.

The next test deals with Ap-1. Put plainly: AP-1 luciferase reporter assay (PMA induced). The note with it: HeLa cells; 30 µM; compared to pTK as control; 4 h; read-out: percentage of luciferase induction Ap-1/PMA. Here is the method:
as §1

The subject of another test is NF-κB. Put plainly: NF-κB luciferase reporter assay (PMA induced). The settings on record: Homo sapiens; HeLa cells; 30 µM; compared to pTK as control; 4 h; read-out: percentage of luciferase induction NF-kB/PMA. Here is the method:
as §1
In general terms: Reporter assays use an easily measured gene product as a stand-in for the process of interest.

The next test deals with Hedgehog. Put plainly: Hedgehog luciferase reporter assay (PMA induced). The settings on record: Homo sapiens; HeLa cells; 30 µM; compared to pTK as control; 6 h; read-out: percentage of luciferase induction Hdghog/PMA. Here is the method: as §1
A further test has as its system Wnt. Put plainly: Wnt luciferase reporter assay (m-wnt3a induced). The settings on record: Homo sapiens; HeLa cells; 30 µM; compared to pTK as control; 6 h; read-out: percentage of luciferase induction Wnt/m-wnt 3a. Here is the method:
as §1

In the next test the test system is Stat3. Put plainly: Stat3 luciferase reporter assay (IL-6 induced). The note with it: Homo sapiens; HeLa cells; 30 µM; compared to pTK as control; 4 h; read-out: percentage of luciferase induction Stat3/IL-6. Here is the method:
as §1

A further test deals with Ets. Put plainly: Ets luciferase reporter assay (PMA induced). The settings on record: Homo sapiens; HeLa cells; 30 µM; compared to pTK as control; 4 h; read-out: percentage of luciferase induction Ets/PMA. Here is the method:
as §1

A further test concerns Notch. Put plainly: Notch luciferase reporter assay (PMA induced). The settings on record: Homo sapiens; HeLa cells; 30 µM; compared to pTK as control; 6 h; read-out: percentage of luciferase induction Notch/PMA. Here is the method: as §1
For another test, the system named is E2F. Put plainly: E2F luciferase reporter assay (PMA induced). The note with it: Homo sapiens; HeLa cells; 30 µM; compared to pTK as control; 4 h; read-out: percentage of luciferase induction E2F/PMA. Here is the method:
as §1

A further test relates to Myc. Put plainly: Myc luciferase reporter assay (PMA induced). The settings on record: Homo sapiens; HeLa cells; 30 µM; compared to pTK as control; 4 h; read-out: percentage of luciferase induction Myc/PMA. Here is the method: as §1
The next test deals with FoxO. Put plainly: FoxO luciferase reporter assay (no inducer). The note with it: Homo sapiens, HeLa cells, 30 µM, 6 h, read-out: percentage of luciferase induction FoxO/No Induction. Here is the method:
as §1

For a further test, the system named is miR-21. Put plainly: miR-21 luciferase reporter assay (no inducer). The note with it: Homo sapiens, HeLa cells, 30 µM, 6 h, read-out: percentage of luciferase induction mi-R21/No Induction. Here is the method: as §1
The test system of the next test is Smad. Put plainly: Smad luciferase reporter assay (TGF-beta induced). The settings on record: Homo sapiens; HeLa cells; 30 µM; compared to pTK as control; 4 h; read-out: percentage of luciferase induction Smad/TGF-β. Here is the method: as §1

On to `Cc1cc(O)c2c(c1)C(=O)c1cccc(O)c1C2=O` [Compound 11, chrysophanol, reference compound], for which the activity at 30 µM in the test on pTK control vector was 183%; in the test with Ap-1, 115%; in the test on NF-κB it was 90%; in the test with Hedgehog it was 214%; with Wnt, 114%; in the test with Stat3, 171%. Further, the activity at 30 µM in the test with Ets was 130%; with Notch it was 195%; in the test on E2F it was 251%; with Myc it was 144%; with FoxO, 102%; in the test with miR-21, 280%. For the same compound, the activity at 30 µM in the test on Smad was determined as 160%.

`O=C1c2cccc(O)c2C(=O)c2c(O)cc(CO)cc21` [Compound 14, aloe-emodin, reference compound]: the activity at 30 µM in the test on pTK control vector stood at 136%; in the test on Ap-1, 138%; in the test on Hedgehog, 99%; in the test with Wnt, 129%; in the test with Stat3, 132%; with Ets, 128%. The activity at 30 µM in the test on Notch was 157%; in the test with E2F, 178%; with Myc, 95%; with FoxO, 109%; in the test on miR-21 it was 167%; with Smad it was 78%.

For the compound `O=C1c2ccccc2C(=O)c2c(O)ccc(O)c21` [Compound 13, quinizarin, reference compound], the activity at 30 µM with pTK control vector came out at 134%; with Ap-1 it was 107%; with NF-κB, 62%; in the test with Hedgehog, 142%; in the test with Wnt, 97%; in the test on Stat3 it was 164%. In addition, the activity at 30 µM in the test on Ets is 127%; in the test on Notch, 198%; in the test with E2F it was 282%; in the test with Myc it was 81%; in the test on FoxO, 101%; in the test on miR-21, 171%. In addition, in the test with Smad, the activity at 30 µM was 159%.

Regarding `O=C1c2cccc(O)c2C(=O)c2c(O)cccc21` [Compound 12, danthron, reference compound], the activity at 30 µM with pTK control vector is 101%; in the test on Ap-1 it was 122%; in the test with NF-κB, 62%; in the test with Hedgehog, 168%; in the test on Wnt, 122%; in the test with Stat3 it was 137%. Moreover, the activity at 30 µM in the test on Ets stood at 120%; in the test with Notch, 126%; with E2F, 328%; in the test with Myc, 115%; in the test on FoxO, 85%; in the test on miR-21 it was 156%. Also, in the test with Smad, the activity at 30 µM was found to be 101%.
